Legend:
[1] = molecular target: T1, AR ΔH12 (Homo sapiens, UniProt P10275); test: AR expression levels in transiently transfected COS7 cells, AR ΔH12; format: cell-based; settings: 24 hours
T1 construct: expressed in transfected cells; host or cells: COS7
T1 sequence (P10275 1-886 limits assumed): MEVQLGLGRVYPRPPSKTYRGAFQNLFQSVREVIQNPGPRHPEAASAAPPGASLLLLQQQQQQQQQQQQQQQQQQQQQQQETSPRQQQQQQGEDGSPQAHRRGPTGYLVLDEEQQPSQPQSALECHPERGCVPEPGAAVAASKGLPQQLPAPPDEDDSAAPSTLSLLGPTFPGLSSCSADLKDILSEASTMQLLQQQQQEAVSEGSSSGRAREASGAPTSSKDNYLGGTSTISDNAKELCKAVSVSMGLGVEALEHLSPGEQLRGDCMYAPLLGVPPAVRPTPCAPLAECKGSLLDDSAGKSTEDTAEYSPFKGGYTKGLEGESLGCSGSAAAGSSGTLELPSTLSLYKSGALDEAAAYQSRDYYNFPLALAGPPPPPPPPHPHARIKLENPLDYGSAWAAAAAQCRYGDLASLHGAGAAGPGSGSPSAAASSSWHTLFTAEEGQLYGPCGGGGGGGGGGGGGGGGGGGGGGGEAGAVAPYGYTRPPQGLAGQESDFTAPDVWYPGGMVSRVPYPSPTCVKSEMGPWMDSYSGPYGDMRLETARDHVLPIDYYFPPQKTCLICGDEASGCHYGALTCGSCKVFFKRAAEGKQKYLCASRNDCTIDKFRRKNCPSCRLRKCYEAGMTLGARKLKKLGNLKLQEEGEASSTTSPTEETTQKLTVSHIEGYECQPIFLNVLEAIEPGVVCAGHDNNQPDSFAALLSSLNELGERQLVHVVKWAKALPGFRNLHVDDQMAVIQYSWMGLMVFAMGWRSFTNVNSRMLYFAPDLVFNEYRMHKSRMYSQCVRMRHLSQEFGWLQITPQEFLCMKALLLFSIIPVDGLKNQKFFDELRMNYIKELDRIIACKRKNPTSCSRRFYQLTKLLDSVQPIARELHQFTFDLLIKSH

[2] = molecular target: T2, AR in VCaP cells (Homo sapiens, UniProt P10275); test: Nuclear AR, total AR protein and PSA expression in VCaP cells in steroid depleted medium; format: cell-based
T2 construct: endogenous in cells; host or cells: VCaP
T2 sequence (P10275 1-920): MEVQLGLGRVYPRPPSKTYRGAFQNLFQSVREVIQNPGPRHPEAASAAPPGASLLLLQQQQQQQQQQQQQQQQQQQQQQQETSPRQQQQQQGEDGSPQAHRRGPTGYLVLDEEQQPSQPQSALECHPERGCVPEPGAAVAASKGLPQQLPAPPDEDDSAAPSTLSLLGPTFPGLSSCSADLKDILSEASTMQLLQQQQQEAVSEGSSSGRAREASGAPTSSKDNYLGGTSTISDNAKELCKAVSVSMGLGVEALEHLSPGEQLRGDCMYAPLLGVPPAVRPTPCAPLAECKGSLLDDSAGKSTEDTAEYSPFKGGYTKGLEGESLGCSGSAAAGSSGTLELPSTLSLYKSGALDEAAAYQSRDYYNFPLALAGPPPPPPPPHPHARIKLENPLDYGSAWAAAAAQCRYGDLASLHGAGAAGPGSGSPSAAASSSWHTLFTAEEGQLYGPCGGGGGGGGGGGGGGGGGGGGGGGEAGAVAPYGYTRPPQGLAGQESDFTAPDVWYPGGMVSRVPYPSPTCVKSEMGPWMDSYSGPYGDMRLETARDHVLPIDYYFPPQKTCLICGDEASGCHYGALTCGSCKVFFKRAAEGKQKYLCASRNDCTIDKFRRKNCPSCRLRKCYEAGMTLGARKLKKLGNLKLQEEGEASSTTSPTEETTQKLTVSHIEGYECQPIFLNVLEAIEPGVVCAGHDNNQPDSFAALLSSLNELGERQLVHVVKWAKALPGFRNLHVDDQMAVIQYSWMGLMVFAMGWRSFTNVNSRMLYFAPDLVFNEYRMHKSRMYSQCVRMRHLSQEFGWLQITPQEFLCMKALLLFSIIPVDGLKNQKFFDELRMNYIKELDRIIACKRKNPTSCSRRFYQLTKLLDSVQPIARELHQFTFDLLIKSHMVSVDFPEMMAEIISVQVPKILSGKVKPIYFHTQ
Source text: VCaP cells, derived from a CRPC vertebral metastasis, express substantial levels of AR and AR regulated genes such as PSA even when cultured in steroid depleted medium. […] In additional studies focused on chemotype A compounds, we used immunofluorescence to assess AR nuclear localization. […] In contrast, and consistent with the biochemical fractionation studies noted above, basal nuclear AR was decreased by A61.
We used the NE-PER Nuclear and Cytoplasmic Extraction Reagents (Pierce 78833).

CCOc1cc(F)c(S(=O)(=O)NCc2ccc3c(c2)OCO3)cc1F [Compound A89, N-(1,3-benzodioxol-5-ylmethyl)-4-ethoxy-2,5-difluorobenzenesulfonamide]
AR ΔH12 protein levels [1]: not clearly decreased | basal level PSA expression ([2]; 10 μM, steroid depleted medium): further decreasing basal level PSA expression | nuclear AR ([2]; 10 μM, steroid depleted medium): significantly decreased nuclear AR | DHT stimulated PSA expression ([2]; not shown): blocking DHT stimulated PSA expression

Reference: patent publication US20140088187A1, “ANDROGEN RECEPTOR INHIBITORS AND METHODS OF USE THEREOF” (BETH ISRAEL DEACONESS MEDICAL CENTER, priority 2010, published 2014)
